Experiments:
[1] = Body weight of animals, HEBI / HA5 study; type: in vivo, Fischer 344 rats; settings: for Weight: 100 μM (NaF 250 ppm), 4 weeks
Method: Rat model of dental caries. In vivo studies of colonization and virulence of S. mutans were evaluated using a previously reported rat model of dental caries^71. Offspring of gnotobiotic Fischer 344 rats used in this experiment were bred and maintained in trexler isolators. Male and female rat pups were removed from isolators at 20 days of age and randomly assigned into 5 treatment groups of 5 rats/group in cages with filter tops. Rats were then infected with S. mutans UA159 strain by oral swabbing daily for four consecutive days with a fresh overnight culture of S. mutans UA159. Rats were provided with caries promoting Teklad Diet 305 containing […] (Harlan Laboratories, Inc., Indianapolis, IN) and sterile drinking water ad libitum. Oral swabs were taken 5 days post-infection and plated on Todd Hewitt (TH) agar plates and incubated at 37° C. in an environment of 5% CO2 in the air to confirm colonization. Rats were weighed at weaning and at the termination of the experiment. One-week post-infection, the molars of the rats were treated topically twice daily for 4 weeks with the test compounds using camel-hair brushes. […] Each sample was serially diluted, plated on blood agar plates (BAP) and mitis-salivarius (MS) agar plates and incubated in an environment of 5% CO2 at 37° C. to quantify the level of total bacteria and S. mutans present in the plaque. […] After drying, the mandibles were sectioned and scored for caries activity using the Keyes method^68. Caries scores were recorded for the buccal, sulcal and proximal molar surfaces individually so that differences among the surfaces can be distinguished. Statistical significance in the mean caries scores, colony-forming units (CFUs)/mandible and body weights between groups of rats were determined by one-way analysis of variance (ANOVA) with the Tukey-Kramer multiple comparison test using the InStat program (Graphpad Software, San Diego, CA). […]

[2] = test system: S. mutans UA159 biofilms; assay: Fluorescence microscopy of S. mutans UA159 biofilms (Syto-9, Cascade Blue-dextran, propidium iodide); type: cell-based, Streptococcus mutans; settings: 16 h
Method: FIGS. 1.6A-E illustrate the biofilm inhibitory activities of compound HA5. FIG. 1.6A illustrates that S. mutans UA159 were co-incubated with HA5 at various concentrations and biofilm formation was measured at OD562 using the crystal violet protocol. FIG. 1.6B illustrates Gtfs precipitated from S. mutans culture were co-incubated with HA5 at various concentrations and the glucan production was quantified using cascade blue staining and subsequent image processing with ImageJ. FIG. 1.6C illustrates representative fluorescence microscopy images of UA159 biofilms after 16 h of treatment with various concentrations of HA5. Bacterial cells were stained with Syto-9 (green, panel I); glucans were stained with Cascade Blue-dextran conjugated dye (blue, panel II); eDNA was stained with propidium iodide (red, panel III) and a merged image of all three staining images (panel IV). FIG. 1.6D illustrates S. mutans UA159, S. gordonii DL1 and S. sanguinis SK36 were co-incubated with HA5 at 50 μM and 100 μM and their growth were measured at OD470. FIG. 1.6E illustrates the chemical structure of HA5. Each of the biofilm, glucan and growth assays were conducted in triplicate and statistical significance was tested with one-way ANOVA. p<0.0001. […]
HA5 inhibits S. mutans UA159 biofilms, glucan production and eDNA levels. The antibiofilm activities of HA5 were further investigated by fluorescence microscopy imaging. […] In addition, propidium iodide was used to determine the presence of extracellular DNA (eDNA) in S. mutans biofilms. […] These findings reaffirm that HA5 inhibited S. mutans biofilms by preventing the synthesis of glucans and minimizing the presence of eDNA, two integral biofilm matrix elements crucial for S. mutans biofilm formation.
In addition, propidium iodide was used to determine the presence of extracellular DNA (eDNA) in S. mutans biofilms. […] These findings reaffirm that compound HA6 inhibited S. mutans biofilms by preventing the synthesis of glucans and minimizing the presence of eDNA, two integral biofilm matrix elements crucial for S. mutans biofilm formation.
Prior to in vivo evaluations, the biofilm inhibitory activities of PEHA5 were investigated. […] In addition, propidium iodide was used to determine the presence of eDNA in S. mutans biofilms. […] The effects of unloaded polymersome vesicles on S. mutans biofilm were compared with the control (1% DMSO) and the biofilm inhibitory activities of PEHA5 and HA5 at a single dose 50 μM concentration. […] In addition, the effect of PEHA5 on the planktonic growth of two commensal Streptococci, S. gordonii and S. Sanguinis were compared with the control (1% DMSO) and HA5 at a single treatment dose of 50 μM.
The biofilm inhibitory activities of PEHA6 were investigated. […] In addition, propidium iodide was used to determine the presence of eDNA in S. mutans biofilms. […] The effects of PEHA6 on S. mutans biofilm were compared with the control (1% DMSO) and the biofilm inhibitory activities of HA5 and HA6 side by side at a single dose, 50 μM concentration. […] In addition, the effect of PEHA6 on the planktonic growth of S. mutans was compared with HA5, HA6 at 50 μM.

Structure (SMILES) | Weight [1] | weight loss ([1]; 4-week treatment, 100 μM) | Syto-9 stained bacterial cells within biofilms ([2]; 5 μM) | eDNA (propidium iodide) ([2]; 5 μM) | glucans (Cascade Blue-dextran) ([2]; 5 μM) | Syto-9 stained bacterial cells within biofilms ([2]; 50 μM) | eDNA (propidium iodide) ([2]; 50 μM) | glucans (Cascade Blue-dextran) ([2]; 50 μM) | Syto-9 stained bacterial cells within biofilms ([2]; 15 μM) | eDNA (propidium iodide) ([2]; 15 μM) | glucans (Cascade Blue-dextran) ([2]; 15 μM) | Syto-9 stained bacterial cells within biofilms ([2]; 30 μM) | eDNA (propidium iodide) ([2]; 30 μM) | glucans (Cascade Blue-dextran) ([2]; 30 μM)
O=C1/C(=C/c2cc(O)c(O)cc2O)Oc2ccccc21 [HA5, 2-[(2′,4′,5′-Trihydroxyphenyl)methylidene]-2,3-dihydro-1-benzofuran-3-one] | 137 ± 13 g | did not experience any weight loss | significant reduction in biofilms | noticeable reduction of eDNA | significantly reduced | complete inhibition | almost complete absence of eDNA | no glucan formation was evident |  |  |  |  |  | 
O=C1/C(=C/c2cc(O)c(O)c(O)c2)Oc2ccccc21 [HA6, 2-[(3′,4′,5′-Trihydroxyphenyl)methylidene]-2,3-dihydro-1-benzofuran-3-one] |  |  |  |  |  |  |  |  | significant reduction in biofilms | noticeable reduction of eDNA | significantly reduced | complete inhibition | almost complete absence of eDNA | no glucan formation was evident
[F-].[Na+] [NaF, reference compound] | 161 ± 13 g |  |  |  |  |  |  |  |  |  |  |  |  | 

Reference: US20260315431A1, “NANOMATERIAL ENCAPSULATED BIOFILM INHIBITORS FOR DENTAL CARIES TREATMENT” (THE UAB RESEARCH FOUNDATION, priority 2023, published 2026)
